Consider 9 compounds from PubChem BioAssay AID1053144 (Broad Institute, 2014).

The assay deals with NPC TCF/LEF luciferase reporter, Wnt3a EC25, 24 h. Kind of assay: TCF/LEF reporter activation in neural progenitors – cell-based, iPS-derived NPC, luciferase, Wnt3a, cherry-pick, dose response (AID 1053144).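 Note: Wnt3a stimulus is conditioned medium from Wnt3a-transfected mouse L cells at 5% in well.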

Turning to `Nc1ccc(N=Nc2ccccc2Cl)c(N)n1`, the AC30 is 4.42 µM.

For `CCOC(=O)N1CCC(Nc2c(NCCCN3CCN(c4ccc(OC)cc4)CC3)c(=O)c2=O)CC1`, the AC30 was 19.5 µM.

In the case of `CCNc1nc(N)c(C(=O)c2ccc(Cl)s2)s1`, the AC30 is 11.3 µM.

Turning to `Cc1cc(C)n(CCC(=O)N/N=C/c2ccc(Br)c([N+](=O)[O-])c2)n1`, the AC30 is 17.2 µM.

As for `O=c1cc(-c2cccs2)oc2ccc(Cl)cc12`, the AC30 is 5.83 µM.

As for `Nc1ccccc1C(=O)/C=C/c1ccc2c(c1)OCO2`, the AC30 is 2.2 µM.

On to `O=C(Nc1ncccc1O)c1ccc(Oc2ccccc2)cc1`, for which the AC30 was 12.3 µM.

Consider `Cc1ccc2cc(/C=C/C(=O)c3ccco3)c(Cl)nc2c1`, for which the AC30 is 16.8 µM.

As to `COc1ccccc1CNC(=O)COc1ccccc1C(=O)c1cnn(-c2ccccc2)c1`, the AC30 was 10 µM.
